These results are taken from patent publication US10047098B2, “C5-C6-oxacyclic fused iminopyrimidinone compounds as bace inhibitors, compositions, and their use” (Merck Sharp & Dohme Corp., priority 2014, dated 2018).

pKi: −log10 of the molar value.

The target in assay [1] is purified human autoBACE-2 (Homo sapiens (Human), UniProt Q9Y5Z0). In words: BACE-2 Assay (BACE-HTRF assay). Type of assay: biochemical. The note with it: Ki calculated from IC50 using the Cheng-Prusoff equation; QSY7-EISEVNLDAEFC-Eu-amide substrate, pH 5.0. The procedure:
Inhibitor IC50s at purified human autoBACE-2 are determined in a time-resolved endpoint proteolysis assay that measures hydrolysis of the QSY7-[…]-Eu-amide FRET peptide substrate (BACE-HTRF assay). […] DMSO is present at 5% final concentration in the assay. Following laser excitation of sample wells at 320 nm, the fluorescence signal at 620 nm is collected for 400 ms following a 50 μs delay on a RUBYstar HTRF plate reader (BMG Labtechnologies). Raw RFU data is normalized to maximum (1.0 nM BACE/DMSO) and minimum (no enzyme/DMSO) RFU values. […] The Ki values are calculated from the IC50 using the Cheng-Prusoff equation.

Assay [2] concerns the target Recombinant human soluble BACE1 catalytic domain (Homo sapiens (Human), UniProt P56817). Briefly: BACE1 HTRF FRET Assay. The note with it: Ki calculated from IC50 using the Cheng-Prusoff equation; QSY7-APPswe-Eu substrate, pH 5.0; read-out: BACE-1 Ki. Type of assay: biochemical. The source says: Reagents: Na^+-Acetate pH 5.0; 1% Brij-35; Glycerol; Dimethyl Sulfoxide (DMSO); Recombinant human soluble BACE1 catalytic domain (>95% pure); APP Swedish mutant peptide substrate (QSY7-APP^swe-Eu): QSY7-EISEVNLDAEFC-Europium-amide.
A homogeneous time-resolved FRET assay can be used to determine IC50 values for inhibitors of the soluble human BACE1 catalytic domain. This assay monitors the increase of 620 nm fluorescence that resulted from BACE1 cleavage of an APPswedish APP^swe mutant peptide FRET substrate (QSY7-EISEVNLDAEFC-Europium-amide). This substrate contains an N-terminal QSY7 moiety that serves as a quencher of the C-terminal Europium fluorophore (620 nm Em). In the absence of enzyme activity, 620 nm fluorescence is low in the assay and increased linearly over 3 hours in the presence of uninhibited BACE1 enzyme. Inhibition of BACE1 cleavage of the QSY7-APP^swe-Eu substrate by inhibitors is manifested as a suppression of 620 nm fluorescence.
Varying concentrations of inhibitors at 3× the final desired concentration in a volume of 10 ul are preincubated with purified human BACE1 catalytic domain (3 nM in 10 μl) for 30 minutes at 30° C. in reaction buffer containing 20 mM Na-Acetate pH 5.0, 10% glycerol, 0.1% Brij-35 and 7.5% DSMO. Reactions are initiated by addition of 10 μl of 600 nM QSY7-APP^swe-Eu substrate (200 nM final) to give a final reaction volume of 30 μl in a 384 well Nunc HTRF plate. The reactions are incubated at 30° C. for 1.5 hours. The 620 nm fluorescence is then read on a Rubystar HTRF plate reader (BMG Labtechnologies) using a 50 millisecond delay followed by a 400 millisecond acquisition time window. Inhibitor IC50 values are derived from non-linear regression analysis of concentration response curves. Ki values are then calculated from IC50 values using the Cheng-Prusoff equation using a previously determined […] of 8 μM for the QSY7-APP^swe-Eu substrate at BACE1.

Sequence of purified human autoBACE-2 (Q9Y5Z0 63-473 limits assumed): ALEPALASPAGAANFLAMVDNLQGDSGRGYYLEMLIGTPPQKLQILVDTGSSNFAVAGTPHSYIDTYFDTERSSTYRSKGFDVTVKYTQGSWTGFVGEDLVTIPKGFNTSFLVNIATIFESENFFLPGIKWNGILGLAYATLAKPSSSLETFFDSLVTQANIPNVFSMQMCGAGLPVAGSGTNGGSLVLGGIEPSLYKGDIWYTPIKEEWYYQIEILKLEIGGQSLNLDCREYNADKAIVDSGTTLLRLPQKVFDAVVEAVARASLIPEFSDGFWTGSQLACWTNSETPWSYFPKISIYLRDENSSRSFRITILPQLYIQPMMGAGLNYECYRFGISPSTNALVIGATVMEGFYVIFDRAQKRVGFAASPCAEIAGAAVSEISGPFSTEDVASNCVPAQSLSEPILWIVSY
Sequence of Recombinant human soluble BACE1 catalytic domain (P56817 75-416): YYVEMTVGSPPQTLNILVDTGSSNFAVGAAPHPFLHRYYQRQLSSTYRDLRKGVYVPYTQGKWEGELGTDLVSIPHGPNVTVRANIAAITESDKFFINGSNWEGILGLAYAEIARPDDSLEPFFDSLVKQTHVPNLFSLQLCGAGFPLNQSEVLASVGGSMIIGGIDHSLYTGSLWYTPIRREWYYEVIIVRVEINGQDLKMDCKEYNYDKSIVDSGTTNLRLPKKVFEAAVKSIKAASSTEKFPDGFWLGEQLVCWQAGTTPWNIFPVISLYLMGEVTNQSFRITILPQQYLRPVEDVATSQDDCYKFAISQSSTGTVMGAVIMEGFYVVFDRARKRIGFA

As to `CN1C(=N)N[C@@]2(c3cc(OCC4CCC4)ccc3F)CO[C@@H](C3CC3)C[C@H]2C1=O` [Example 44, (4aR,6R,8aS)-8a-(5-(cyclobutylmethoxy)-2-fluorophenyl)-6-cyclopropyl-2-imino-3-methylhexahydro-1H-pyrano[3,4-d]pyrimidin-4(4aH)-one], the pKi in assay [1] is 7.70; in assay [2], 7.52.
For `CC(C)COc1ccc(F)c([C@]23CO[C@@H](C4CC4)C[C@H]2C(=O)N(C)C(=N)N3)c1` [Example 45, (4aR,6R,8aS)-6-cyclopropyl-8a-(2-fluoro-5-isobutoxyphenyl)-2-imino-3-methylhexahydro-1H-pyrano[3,4-d]pyrimidin-4(4aH)-one], in that order: 7.60 and 7.35.
On the same counts, the results for `CN1C(=N)N[C@@]2(c3cc(OCC(F)F)ccc3F)CO[C@@H](C3CC3)C[C@H]2C1=O` [Example 46, (4aR,6R,8aS)-6-cyclopropyl-8a-(5-(2,2-difluoroethoxy)-2-fluorophenyl)-2-imino-3-methylhexahydro-1H-pyrano[3,4-d]pyrimidin-4(4aH)-one] are 7.39 and 7.40.
Turning to `COC[C@@H]1C[C@H]2C(=O)N(C)C(=N)N[C@@]2(c2ccc(F)cc2F)CO1` [Example 47, (4aR,6S,8aS)-8a-(2,4-difluorophenyl)-2-imino-6-(methoxymethyl)-3-methylhexahydro-1H-pyrano[3,4-d]pyrimidin-4(4aH)-one], the figures for the pKi in assay [1] and in assay [2] were 5.03 and 5.24, respectively.
As to `COC(=O)[C@@H]1C[C@H]2C(=O)N(C)C(=N)N[C@@]2(c2ccc(F)cc2F)CO1` [Example 48, methyl (4aR,6S,8aS)-8a-(2,4-difluorophenyl)-2-imino-3-methyl-4-oxooctahydro-1H-pyrano[3,4-d]pyrimidine-6-carboxylate], the pKi in assay [1] is 5.86; in assay [2] it was 5.96.
On the same counts, the results for `CCCOc1ccc(F)c([C@]23CO[C@@H](C4CC4)C[C@H]2C(=O)N(C)C(=N)N3)c1` [Example 49, (4aR,6R,8aS)-6-cyclopropyl-8a-(2-fluoro-5-propoxyphenyl)-2-imino-3-methylhexahydro-1H-pyrano[3,4-d]pyrimidin-4(4aH)-one] are 7.19 and 7.18.
Take `COCCOc1ccc(F)c([C@]23CO[C@@H](C4CC4)C[C@H]2C(=O)N(C)C(=N)N3)c1` [Example 50, (4aR,6R,8aS)-6-cyclopropyl-8a-(2-fluoro-5-(2-methoxyethoxy)phenyl)-2-imino-3-methylhexahydro-1H-pyrano[3,4-d]pyrimidin-4(4aH)-one]: the results for the pKi in assay [1] and in assay [2] were 7.17 and 7.04, respectively.
On to `CN1C(=N)N[C@@]2(c3cc(OCC4CC(F)(F)C4)ccc3F)CO[C@@H](C3CC3)C[C@H]2C1=O` [Example 51, (4aR,6R,8aS)-6-cyclopropyl-8a-(5-((3,3-difluorocyclobutyl)methoxy)-2-fluorophenyl)-2-imino-3-methylhexahydro-1H-pyrano[3,4-d]pyrimidin-4(4aH)-one], for which the figures for the pKi in assay [1] and in assay [2] were 7.38 and 7.26, respectively.
Regarding `CN1C(=N)N[C@@]2(c3cc(OCC4CC4(F)F)ccc3F)CO[C@@H](C3CC3)C[C@H]2C1=O` (stereo partly drawn) [Example 52], the pKi was 7.74 in assay [1] and 7.51 in assay [2].
Turning to `COC1CC(COc2ccc(F)c([C@]34CO[C@@H](C5CC5)C[C@H]3C(=O)N(C)C(=N)N4)c2)C1` (stereo partly drawn) [Example 53, (4aR,6R,8aS)-6-cyclopropyl-8a-(2-fluoro-5-((3-methoxycyclobutyl)methoxy)phenyl)-2-imino-3-methylhexahydro-1H-pyrano[3,4-d]pyrimidin-4(4aH)-one], the values for the pKi in assay [1] and in assay [2] were 6.93 and 6.74, respectively.
On to `CN1C(=N)N[C@@]2(c3cc(OCC45CC(C4)C5)ccc3F)CO[C@@H](C3CC3)C[C@H]2C1=O` [Example 54, (4aR,6R,8aS)-8a-(5-(bicyclo[1.1.1]pentan-1-ylmethoxy)-2-fluorophenyl)-6-cyclopropyl-2-imino-3-methylhexahydro-1H-pyrano[3,4-d]pyrimidin-4(4aH)-one], for which the results for the pKi in assay [1] and in assay [2] were 8.40 and 7.68, respectively.
For `CN1C(=N)N[C@@]2(c3cc(OCC(F)(F)F)ccc3F)CO[C@@H](C3CC3)C[C@H]2C1=O` [Example 55, (4aR,6R,8aS)-6-cyclopropyl-8a-(2-fluoro-5-(2,2,2-trifluoroethoxy)phenyl)-2-imino-3-methylhexahydro-1H-pyrano[3,4-d]pyrimidin-4(4aH)-one], the values for the pKi in assay [1] and in assay [2] were 5.34 and 6.20, respectively.
Take `CN1C(=N)N[C@@]2(c3cc(Oc4cc(-n5cccn5)ccn4)ccc3F)CO[C@@H](C3CC3)C[C@H]2C1=O` [Example 56, (4aR,6R,8aS)-8a-(5-((4-(1H-pyrazol-1-yl)pyridin-2-yl)oxy)-2-fluorophenyl)-6-cyclopropyl-2-imino-3-methylhexahydro-1H-pyrano[3,4-d]pyrimidin-4(4aH)-one]: the pKi is 7.29 in assay [1] and 8.05 in assay [2].
On the same counts, the results for `CN1C(=N)N[C@@]2(c3cc(OC4CC(F)(F)C4)ccc3F)CO[C@@H](C3CC3)C[C@H]2C1=O` [Example 57, (4aR,6R,8aS)-6-cyclopropyl-8a-(5-(3,3-difluorocyclobutoxy)-2-fluorophenyl)-2-imino-3-methylhexahydro-1H-pyrano[3,4-d]pyrimidin-4(4aH)-one] are 7.39 and 7.37.
On the same counts, the results for `CN1C(=N)N[C@@]2(c3cc(Oc4ncncc4F)ccc3F)CO[C@@H](C3CC3)CC2C1=O` (stereo partly drawn) [Example 58, (6R,8aS)-6-cyclopropyl-8a-(2-fluoro-5-((5-fluoropyrimidin-4-yl)oxy)phenyl)-2-imino-3-methylhexahydro-IH-pyrano[3,4-d]pyrimidin-4(4aH)-one] are 7.46 and 7.89.
On to `COC[C@H]1C[C@H]2C(=O)N(C)C(=N)N[C@@]2(c2cc(Oc3cc(F)cnc3F)c(F)cc2F)CO1` [Example 59, (4aR,6R,8aS)-8a-(5-((2,5-difluoropyridin-3-yl)oxy)-2,4-difluorophenyl)-2-imino-6-(methoxymethyl)-3-methylhexahydro-1H-pyrano[3,4-d]pyrimidin-4(4aH)-one], for which the figures for the pKi in assay [1] and in assay [2] were 7.70 and 8.52, respectively.
For `Cc1cnc(Oc2ccc(F)c([C@]34CO[C@@H](C5CC5)C[C@H]3C(=O)N(C)C(=N)N4)c2)c(F)c1` [Example 60, (4aR,6R,8aS)-6-cyclopropyl-8a-(2-fluoro-5-((3-fluoro-5-methylpyridin-2-yl)oxy)phenyl)-2-imino-3-methylhexahydro-1H-pyrano[3,4-d]pyrimidin-4(4aH)-one], the pKi was 6.90 in assay [1] and 6.92 in assay [2].
On the same counts, the results for `C[C@H]1C[C@H]2C(=O)N(C)C(=N)N[C@@]2(c2cc(O)ccc2F)CO1` [Example 64, (4aR,6S,8aS)-8a-(2-fluoro-5-hydroxyphenyl)-2-imino-3,6-dimethylhexahydro-1H-pyrano[3,4-d]pyrimidin-4(4aH)-one] are 7.08 and 6.45.
Turning to `COc1cncc(Oc2ccc(F)c([C@]34CO[C@@H](C)C[C@H]3C(=O)N(C)C(=N)N4)c2)n1` [Example 65, (4aR,6S,8aS)-8a-(2-fluoro-5-((6-methoxypyrazin-2-yl)oxy)phenyl)-2-imino-3,6-dimethylhexahydro-1H-pyrano[3,4-d]pyrimidin-4(4aH)-one], the pKi in assay [1] was 7.80; in assay [2], 8.18.
Consider `C[C@H]1C[C@H]2C(=O)N(C)C(=N)N[C@@]2(c2cc(Oc3cnccn3)ccc2F)CO1` [Example 66, (4aR,6S,8aS)-8a-(2-fluoro-5-(pyrazin-2-yloxy)phenyl)-2-imino-3,6-dimethylhexahydro-1H-pyrano[3,4-d]pyrimidin-4(4aH)-one], for which the negative-log Ki (pKi) in assay [1] was 7.52; in assay [2], 7.93.
As to `Cc1cncc(Oc2ccc(F)c([C@]34CO[C@@H](C)C[C@H]3C(=O)N(C)C(=N)N4)c2)n1` [Example 67, (4aR,6S,8aS)-8a-(2-fluoro-5-((6-methylpyrazin-2-yl)oxy)phenyl)-2-imino-3,6-dimethylhexahydro-1H-pyrano[3,4-d]pyrimidin-4(4aH)-one], the pKi is 7.60 in assay [1] and 7.88 in assay [2].

For orientation: pKi means −log10 of the Ki, conventionally taken in molar units.
